Assay results reported in patent US20250122182A1 (Isosterix, Inc., priority 2023, published 2025).

Target: Recombinant KAT6A/MOZ (488-778) protein (Homo sapiens (Human), UniProt Q92794)
Test: KAT6A AlphaLISA Inhibition Screening Assay
Assay type: biochemical
Conditions: for inhibition at 1 µM: read-out: Average Kat6A % inhibition @ 1 μM; for inhibition at 1 µM / Average Kat6A % inhibition @ 1 μM: 1 μM test compound; for inhibition at 10 µM: read-out: Average Kat6A % inhibition @ 10 μM; for inhibition at 10 µM / Average Kat6A % inhibition @ 10 μM: 10 μM test compound
Procedure: The Kat6a inhibitory activity of test compounds was determined using an Alpha Screen-based detection method. The assay reactions were conducted in a volume of 10 μL in Alpha Plate, White 384 well plate (cat #6008280, Perkin Elmer). The enzymatic reactions were performed in assay buffer pH 8.0 (50 mM Tris-HCl, 0.1 mM EDTA, 0.01% Tween-20, 1 mM Dithiothreitol, 0.1% BSA (fatty acid free) and 330 nM TSA (Trichostatin A)). 10 μL reaction volume consisting of 25 nM of Recombinant KAT6A/MOZ (488-778) protein (Active motif, Catalog #81223), 400 nM Acetyl coenzyme A (Catalog #A2056, Sigma), 200 nM of Histone H3 peptide [(amino acids 1-21), biotin-labeled (BPS Biosciences, Catalog #52011)]. Test compounds were screened at different doses starting with 10 μM, 3 fold dilution and 10 point Dose response curve. Enzyme and compounds solution were pre-incubated in assay plate for 60 or 10 min at room temperature then substrate and Acetyl coenzyme A solution were added to the plate. After addition, the plate was sealed with adhesive seals and incubated for 120 minutes at room temperature.
After 120 minutes of incubation, […] of AlphaLISA anti-acetyl-Lysine acceptor beads (Perkin Elmer, Catalog #AL143C) were added to the plate and it was incubated for 60 minutes at room temperature. Then […] of Alpha Streptavidin donor beads (Perkin Elmer, Catalog #6760002S) were added to the plate which was further incubated for 60 minutes at room temperature. After incubation, the alpha signal was recorded by using Perkin Elmer Envision multi-mode reader. Percent inhibition of enzyme activity by test compounds were determined relative to vehicle control.

Sequence of Recombinant KAT6A/MOZ (488-778) protein (Q92794 488-778): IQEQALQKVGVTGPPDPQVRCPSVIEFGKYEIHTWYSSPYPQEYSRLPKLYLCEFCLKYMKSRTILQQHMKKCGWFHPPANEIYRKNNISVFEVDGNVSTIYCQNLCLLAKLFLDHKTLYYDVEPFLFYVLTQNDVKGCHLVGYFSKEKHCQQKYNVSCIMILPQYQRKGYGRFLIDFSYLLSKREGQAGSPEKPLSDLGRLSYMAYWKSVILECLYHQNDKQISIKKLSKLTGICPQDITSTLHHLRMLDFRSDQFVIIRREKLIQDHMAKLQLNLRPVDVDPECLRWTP

| Structure (SMILES) | inhibition at 1 µM [%] | inhibition at 10 µM [%] | Average Kat6A % inhibition @ 1 μM [%] | Average Kat6A % inhibition @ 10 μM [%] |
| --- | --- | --- | --- | --- |
| C#CC(=O)N1Cc2cnn(Cc3cc(OC)c4c(NS(=O)(=O)c5cc(Cl)ccc5OC)noc4c3)c2C1 [Syn. Ex. 1, 5-chloro-2-methoxy-N-(4-methoxy-6-((5-propioloyl-5,6-dihydropyrrolo[3,4-c]pyrazol-1(4H)-yl)methyl)benzo[d]isoxazol-3-yl)benzenesulfonamide] | 100 | 100 | – | – |
| C#CC(=O)N1Cc2cn(Cc3cc(OC)c4c(NS(=O)(=O)c5cc(Cl)ccc5OC)noc4c3)nc2C1 [Syn. Ex. 2, 5-chloro-2-methoxy-N-(4-methoxy-6-((5-propioloyl-5,6-dihydropyrrolo[3,4-c]pyrazol-2(4H)-yl)methyl)benzo[d]isoxazol-3-yl)benzenesulfonamide] | 71 | 100 | – | – |
| CCC(=O)N1Cc2cnn(Cc3cc(OC)c4c(NS(=O)(=O)c5ccccc5OC)noc4c3)c2C1 [Syn. Ex. 3, 2-methoxy-N-(4-methoxy-6-((5-propionyl-5,6-dihydropyrrolo[3,4-c]pyrazol-1(4H)-yl)methyl)benzo[d]isoxazol-3-yl)benzenesulfonamide] | 100 | 100 | – | – |
| C#CC(=O)N1Cc2cnn(Cc3cc(OC)c4c(NS(=O)(=O)c5cc(OC)ccc5OC)noc4c3)c2C1 [Syn. Ex. 4, 2,5-dimethoxy-N-(4-methoxy-6-((5-propioloyl-5,6-dihydropyrrolo[3,4-c]pyrazol-1(4H)-yl)methyl)benzo[d]isoxazol-3-yl)benzenesulfonamide] | 100 | 100 | – | – |
| C#CC(=O)N1Cc2cn(Cc3cc(OC)c4c(NS(=O)(=O)c5cc(OC)ccc5OC)noc4c3)nc2C1 [Syn. Ex. 5, 2,5-dimethoxy-N-(4-methoxy-6-((5-propioloyl-5,6-dihydropyrrolo[3,4-c]pyrazol-2(4H)-yl)methyl)benzo[d]isoxazol-3-yl)benzenesulfonamide] | 83 | 100 | – | – |
| COc1ccccc1S(=O)(=O)Nc1noc2cc(Cn3cc(CNS(C)(=O)=O)cn3)cc(OC)c12 [Syn. Ex. 6, 2-methoxy-N-(4-methoxy-6-((4-(methylsulfonamidomethyl)-1H-pyrazol-1-yl)methyl)benzo[d]isoxazol-3-yl) benzenesulfonamide] | – | – | 99 | 100 |
| C#CC(=O)N1CCc2cnn(Cc3cc(OC)c4c(NS(=O)(=O)c5cc(CC)ccc5OC)noc4c3)c2CC1 [Syn. Ex. 9, 5-ethyl-2-methoxy-N-(4-methoxy-6-((6-propioloyl-5,6,7,8-tetrahydropyrazolo[3,4-d]azepin-1(4H)-yl)methyl)benzo[d]isoxazol-3-yl)benzenesulfonamide] | 61 | 100 | – | – |
| COc1ccc(S(=O)(=O)Nc2noc3cc(Cn4cc(CNS(C)(=O)=O)cn4)cc(OC)c23)c(OC)c1 [Syn. Ex. 10, 2,4-dimethoxy-N-(4-methoxy-6-((4-(methylsulfonamidomethyl)-1H-pyrazol-1-yl)methyl)benzo[d]isoxazol-3-yl)benzenesulfonamide] | 100 | 100 | – | – |
| CC#CC(=O)N1Cc2cnn(Cc3cc(OC)c4c(NS(=O)(=O)c5cc(CC)ccc5OC)noc4c3)c2C1 [Syn. Ex. 11, N-(6-((5-(but-2-ynoyl)-5,6-dihydropyrrolo[3,4-c]pyrazol-1(4H)-yl)methyl)-4-methoxybenzo[d]isoxazol-3-yl)-5-ethyl-2-methoxybenzenesulfonamide] | 100 | 100 | – | – |
| CC#CC(=O)N1Cc2cn(Cc3cc(OC)c4c(NS(=O)(=O)c5cc(CC)ccc5OC)noc4c3)nc2C1 [Syn. Ex. 12, N-(6-((5-(but-2-ynoyl)-5,6-dihydropyrrolo[3,4-c]pyrazol-2(4H)-yl)methyl)-4-methoxybenzo[d]isoxazol-3-yl)-5-ethyl-2-methoxybenzenesulfonamide] | 38 | 97 | – | – |
| C=C(F)C(=O)N1Cc2cnn(Cc3cc(OC)c4c(NS(=O)(=O)c5cc(CC)ccc5OC)noc4c3)c2C1 [Syn. Ex. 13, 5-ethyl-N-(6-((5-(2-fluoroacryloyl)-5,6-dihydropyrrolo[3,4-c]pyrazol-1(4H)-yl)methyl)-4-methoxybenzo[d]isoxazol-3-yl)-2-methoxybenzenesulfonamide] | 99 | 100 | – | – |
| COc1cc(C)c(C)cc1S(=O)(=O)Nc1noc2cc(Cn3cc(CNS(C)(=O)=O)cn3)cc(OC)c12 [Syn. Ex. 20, 2-methoxy-N-(4-methoxy-6-((4-(methylsulfonamidomethyl)-1H-pyrazol-1-yl)methyl)benzo[d]isoxazol-3-yl)-4,5-dimethylbenzenesulfonamide] | 100 | 100 | – | – |
| COc1cc(C)c(Cl)cc1S(=O)(=O)Nc1noc2cc(Cn3cc(CNS(C)(=O)=O)cn3)cc(OC)c12 [Syn. Ex. 22, 5-chloro-2-methoxy-N-(4-methoxy-6-((4-(methylsulfonamidomethyl)-1H-pyrazol-1-yl)methyl)benzo[d]isoxazol-3-yl)-4-methylbenzenesulfonamide] | 100 | 100 | – | – |
| COc1cc2c(cc1S(=O)(=O)Nc1noc3cc(Cn4cc(CNS(C)(=O)=O)cn4)cc(OC)c13)CCC2 [Syn. Ex. 24, 6-methoxy-N-(4-methoxy-6-((4-(methylsulfonamidomethyl)-1H-pyrazol-1-yl)methyl)benzo[d]isoxazol-3-yl)-2,3-dihydro-1H-indene-5-sulfonamide] | 99 | 100 | – | – |
| C#CC(=O)N1Cc2cnn(Cc3cc(OC)c4c(NS(=O)(=O)c5ccc(C#N)cc5OC)noc4c3)c2C1 [Syn. Ex. 26, 4-cyano-2-methoxy-N-(4-methoxy-6-((5-propioloyl-5,6-dihydropyrrolo[3,4-c]pyrazol-1(4H)-yl)methyl)benzo[d]isoxazol-3-yl) benzenesulfonamide] | – | – | 99 | 100 |

More lines, main results first:

| inhibition at 1 µM [%] | inhibition at 10 µM [%] | Structure (SMILES) | Average Kat6A % inhibition @ 1 μM [%] | Average Kat6A % inhibition @ 10 μM [%] |
| --- | --- | --- | --- | --- |
| 100 | 100 | CCc1ccc(OC)c(S(=O)(=O)Nc2noc3cc(Cn4cc(CNC(=O)[C@@H](C)F)cn4)cc(OC)c23)c1 (single isomer, unassigned) [Syn. Ex. 47a] | – | – |
| 96 | 100 | CCc1ccc(OC)c(S(=O)(=O)Nc2noc3cc(Cn4cc(CNC(=O)[C@H](C)F)cn4)cc(OC)c23)c1 (single isomer, unassigned) [Syn. Ex. 47b] | – | – |
| 99 | 100 | CCc1ccc(OC)c(S(=O)(=O)Nc2noc3cc(Cn4cc(CNC(C)=O)cn4)cc(OC)c23)c1 [Syn. Ex. 8, N-((1-((3-((5-ethyl-2-methoxyphenyl)sulfonamido)-4-methoxybenzo[d]isoxazol-6-yl)methyl)-1H-pyrazol-4-yl)methyl) acetamide] | – | – |
| 98 | 98 | CCOC(=O)NCc1cnn(Cc2cc(OC)c3c(NS(=O)(=O)c4cc(CC)ccc4OC)noc3c2)c1 [Syn. Ex. 16, ethyl ((1-((3-((5-ethyl-2-methoxyphenyl)sulfonamido)-4-methoxybenzo[d]isoxazol-6-yl)methyl)-1H-pyrazol-4-yl)methyl)carbamate] | – | – |
| 99 | 100 | CCc1ccc(OC)c(S(=O)(=O)Nc2noc3cc(Cn4cc(CNC(=O)OC)cn4)cc(OC)c23)c1 [Syn. Ex. 17, methyl ((1-((3-((5-ethyl-2-methoxyphenyl)sulfonamido)-4-methoxybenzo[d]isoxazol-6-yl)methyl)-1H-pyrazol-4-yl)methyl)carbamate] | – | – |
| 97 | 98 | CCc1ccc(OC)c(S(=O)(=O)Nc2noc3cc(Cn4cc(CNS(=O)(=O)CCOC)cn4)cc(OC)c23)c1 [Syn. Ex. 18, 5-ethyl-2-methoxy-N-(4-methoxy-6-((4-(((2-methoxyethyl)sulfonamido)methyl)-1H-pyrazol-1-yl)methyl)benzo[d]isoxazol-3-yl)benzenesulfonamide] | – | – |
| 100 | 99 | C#CC(=O)NCc1cnn(Cc2cc(OC)c3c(NS(=O)(=O)c4cc(Cl)c(C)cc4OC)noc3c2)c1 [Syn. Ex. 21, N-((1-((3-((5-chloro-2-methoxy-4-methylphenyl)sulfonamido)-4-methoxybenzo[d]isoxazol-6-yl)methyl)-1H-pyrazol-4-yl)methyl)propiolamide] | – | – |
| 100 | 100 | CC#CC(=O)NCc1cnn(Cc2cc(OC)c3c(NS(=O)(=O)c4cc(C)c(C)cc4OC)noc3c2)c1 [Syn. Ex. 27, N-((1-((4-methoxy-3-((2-methoxy-4,5-dimethylphenyl)sulfonamido)benzo[d]isoxazol-6-yl)methyl)-1H-pyrazol-4-yl)methyl)but-2-ynamide] | – | – |
| 100 | 100 | C=C(F)C(=O)NCc1cnn(Cc2cc(OC)c3c(NS(=O)(=O)c4cc(C)c(C)cc4OC)noc3c2)c1 [Syn. Ex. 28, 2-fluoro-N-((1-((4-methoxy-3-((2-methoxy-4,5-dimethylphenyl)sulfonamido)benzo[d]isoxazol-6-yl)methyl)-1H-pyrazol-4-yl)methyl)acrylamide] | – | – |
